From the supplement of paper PMC10307832

Columns and labels:
Assay in all cases: relative viability (nuclei count vs DMSO), 5 days (fraction); higher = more cells survive
Afatinib + Navitoclax = compound: CN(C)C/C=C/C(=O)Nc1cc2c(Nc3ccc(F)c(Cl)c3)ncnc2cc1O[C@H]1CCOC1 [Afatinib] + CC1(C)CCC(c2ccc(Cl)cc2)=C(CN2CCN(c3ccc(C(=O)NS(=O)(=O)c4ccc(N[C@H](CCN5CCOCC5)CSc5ccccc5)c(S(=O)(=O)C(F)(F)F)c4)cc3)CC2)C1 [Navitoclax] (partner 0.5 µM)
In short: (§1)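 Five library-drug doses in √10 steps were combined with a fixed anchor-drug dose, or a single drug was given alone, by pin tool to lung cancer cell lines in 1536-well plates the day after seeding. Nuclei were stained and counted after 5 days. Relative viability is the nuclei count in treated wells over that in vehicle wells, taken as the median of duplicate plates.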

Afatinib + Crizotinib = compound: CN(C)C/C=C/C(=O)Nc1cc2c(Nc3ccc(F)c(Cl)c3)ncnc2cc1O[C@H]1CCOC1 [Afatinib] + C[C@@H](Oc1cc(-c2cnn(C3CCNCC3)c2)cnc1N)c1c(Cl)ccc(F)c1Cl [Crizotinib] (partner 1 µM)
In short: as §1

Afatinib + Dasatinib = compound: CN(C)C/C=C/C(=O)Nc1cc2c(Nc3ccc(F)c(Cl)c3)ncnc2cc1O[C@H]1CCOC1 [Afatinib] + Cc1nc(Nc2ncc(C(=O)Nc3c(C)cccc3Cl)s2)cc(N2CCN(CCO)CC2)n1 [Dasatinib] (partner 0.075 µM)
In short: as §1

Afatinib + Vorinostat = compound: CN(C)C/C=C/C(=O)Nc1cc2c(Nc3ccc(F)c(Cl)c3)ncnc2cc1O[C@H]1CCOC1 [Afatinib] + O=C(CCCCCCC(=O)Nc1ccccc1)NO [Vorinostat] (partner 1 µM)
In short: as §1

Row | Cell Line | relative viability (Afatinib + Navitoclax; first compound 0.005 µM) | relative viability (Afatinib + Navitoclax; first compound 0.01581 µM) | relative viability (Afatinib + Navitoclax; first compound 0.05 µM) | relative viability (Afatinib + Navitoclax; first compound 0.1581 µM) | relative viability (Afatinib + Navitoclax; first compound 0.5 µM) | relative viability (Afatinib + Crizotinib; first compound 0.005 µM) | relative viability (Afatinib + Crizotinib; first compound 0.01581 µM) | relative viability (Afatinib + Crizotinib; first compound 0.05 µM) | relative viability (Afatinib + Crizotinib; first compound 0.1581 µM) | relative viability (Afatinib + Crizotinib; first compound 0.5 µM) | relative viability (Afatinib + Dasatinib; first compound 0.005 µM) | relative viability (Afatinib + Dasatinib; first compound 0.01581 µM) | relative viability (Afatinib + Dasatinib; first compound 0.05 µM) | relative viability (Afatinib + Dasatinib; first compound 0.1581 µM) | relative viability (Afatinib + Dasatinib; first compound 0.5 µM) | relative viability (Afatinib + Vorinostat; first compound 0.005 µM) | relative viability (Afatinib + Vorinostat; first compound 0.01581 µM) | relative viability (Afatinib + Vorinostat; first compound 0.05 µM) | relative viability (Afatinib + Vorinostat; first compound 0.1581 µM) | relative viability (Afatinib + Vorinostat; first compound 0.5 µM)
1 | H3255 | 0.101 | 0.0707 | 0.086 | 0.0584 | 0.076 | 0.225 | 0.191 | 0.265 | 0.166 | 0.226 | 0.202 | 0.195 | 0.264 | 0.326 | 0.242 | 0.277 | 0.207 | 0.229 | 0.185 | 0.952
2 | EPLC-272H | 1.21 | 0.944 | 0.911 | 0.742 | 0.868 | 0.698 | 0.72 | 0.842 | 0.739 | 0.575 | 0.326 | 0.341 | 0.262 | 0.253 | 0.244 | 0.402 | 0.387 | 0.347 | 0.448 | 0.273
3 | PC-3 [JPC-3] | 0.398 | 0.345 | 0.341 | 0.324 | 0.32 | 0.51 | 0.453 | 0.447 | 0.4 | 0.355 | 0.46 | 0.339 | 0.286 | 0.25 | 0.33 | 0.531 | 0.339 | 0.287 | 0.326 | 0.328
4 | NCI-H1793 | 0.404 | 0.348 | 0.356 | 0.357 | 0.32 | – | – | – | – | – | 0.33 | 0.341 | 0.343 | 0.361 | 0.272 | 0.733 | 0.424 | 0.411 | 0.401 | 0.38
5 | EKVX | 0.655 | 0.46 | 0.349 | 0.26 | 0.197 | 0.892 | 0.708 | 0.551 | 0.268 | 0.159 | 0.334 | 0.429 | 0.339 | 0.319 | 0.231 | 0.588 | 0.385 | 0.284 | 0.31 | 0.276
6 | ChaGo-K-1 | 1.12 | 0.707 | 0.979 | 0.826 | 1.05 | 1.27 | 1.14 | 1.17 | 1.16 | 1.17 | 0.631 | 0.52 | 0.535 | 0.65 | 0.541 | 0.81 | 0.777 | 0.789 | 0.754 | 0.695
7 | NCI-H23 | 0.973 | 0.843 | 0.881 | 0.735 | 0.814 | 0.516 | 0.459 | 0.612 | 0.44 | 0.639 | 0.682 | 0.69 | 0.754 | 0.884 | 0.83 | 0.787 | 0.589 | 0.615 | 0.619 | 0.591
8 | EMC-BAC-2 | 1.09 | 1.1 | 1.02 | 0.895 | 0.906 | 0.816 | 0.731 | 0.698 | 0.693 | 0.654 | 0.314 | 0.302 | 0.33 | 0.315 | 0.296 | 0.558 | 0.236 | 0.596 | 0.465 | 0.438
9 | LOU-NH91 | 0.402 | 0.39 | 0.441 | 0.348 | 0.402 | 0.523 | 0.574 | 0.69 | 0.488 | 0.542 | 0.399 | 0.421 | 0.486 | 0.424 | 0.4 | 0.742 | 0.776 | 0.837 | 0.748 | 0.848
10 | LU99A | 0.859 | 0.706 | 0.797 | 0.793 | 0.883 | 0.591 | 0.54 | 0.539 | 0.55 | 0.525 | 0.741 | 0.591 | 0.594 | 0.569 | 0.493 | 0.467 | 0.61 | 0.487 | 0.419 | 0.502
11 | NCI-H1395 | 1.31 | 0.999 | 1.12 | 1.17 | 1.2 | – | – | – | – | – | 0.453 | 0.408 | 0.415 | 0.404 | 0.376 | 0.857 | 0.571 | 0.674 | 0.711 | 0.5
12 | NCI-H460 | 1.21 | 1.06 | 1.14 | 1.18 | 1.11 | 0.878 | 0.748 | 0.885 | 0.809 | 0.875 | 0.531 | 0.527 | 0.469 | 0.467 | 0.535 | 0.892 | 0.767 | 0.722 | 0.702 | 0.686
13 | 201T | 1.18 | 1.2 | 1.21 | 1.15 | 1.23 | 0.981 | 0.863 | 0.959 | 0.958 | 1 | 0.589 | 0.517 | 0.581 | 0.56 | 0.544 | 0.936 | 0.902 | 0.922 | 0.783 | 0.957
14 | NCI-H1944 | 1.04 | 0.959 | 0.903 | 0.668 | 0.765 | 1.08 | 0.989 | 0.883 | 0.596 | 0.709 | 0.211 | 0.205 | 0.21 | 0.185 | 0.186 | 0.514 | 0.562 | 0.42 | 0.413 | 0.406
15 | NCI-H2405 | 0.857 | 0.879 | 0.912 | 0.715 | 1.07 | 0.753 | 0.86 | 0.835 | 0.811 | 0.819 | 0.243 | 0.201 | 0.207 | 0.219 | 0.196 | 1.2 | 0.848 | 0.976 | 0.953 | 0.938
16 | NCI-H1703 | 1.22 | 0.95 | 1.34 | 0.746 | 0.641 | 0.824 | 0.694 | 0.581 | 0.731 | 0.561 | – | – | – | – | – | – | – | – | – | –
17 | NCI-H1755 | 0.957 | 0.981 | 1.08 | 0.995 | 0.987 | 0.894 | 0.869 | 0.848 | 0.852 | 0.868 | 0.483 | 0.424 | 0.435 | 0.393 | 0.399 | 0.9 | 0.935 | 0.789 | 0.79 | 0.727
